Data from PubChem BioAssay (NCI).
“And” between values parts separate entries of the source, which are not always exact repeats. Identical values can stand only once.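 96-well plates; 48 h exposure; 5 concentrations. Endpoints by linear interpolation between flanking doses. Not reached: highest tested concentration assigned. Here, GI50 denotes the concentration required for 50% inhibition of growth. TGI: concentration producing complete growth inhibition.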 Where a SMILES comes first, the peptide text is derived from it. [ ]: non-standard residue; d: D form. The star is where a group is joined. NMeF = CN[C@@H](Cc1ccccc1)C(=O)O; NMeV = CN[C@H](C(=O)O)C(C)C; Boc = CC(C)(C)OC(=O)*; OBn = c1ccc(CO*)cc1

What was measured:
Test in all cases: NCI tumour cell line growth inhibition, 48 h
DLD-1 colon = test system: DLD-1 colon
LXFL 529 NSCLC = test system: LXFL 529 NSCLC
KM20L2 colon = test system: KM20L2 colon
XF 498 CNS = test system: XF 498 CNS
SNB-78 CNS = test system: SNB-78 CNS
HOP-18 NSCLC = test system: HOP-18 NSCLC
RXF-631 renal = test system: RXF-631 renal
M19-MEL melanoma = test system: M19-MEL melanoma
P388 leukemia = test system: P388 leukemia
MDA-N = test system: MDA-N
SN12K1 renal = test system: SN12K1 renal

Row | SMILES | TGI (DLD-1 colon) | TGI (LXFL 529 NSCLC) | TGI (KM20L2 colon) | TGI (XF 498 CNS) | TGI (SNB-78 CNS) | TGI (HOP-18 NSCLC) | TGI (RXF-631 renal) | TGI (M19-MEL melanoma) | further results
1 | CCCCCCCCCCCCCCCCCC(=O)OCC(C[As](=O)(O)O)OC(=O)CCCCCCCCCCCCCCCCC (configuration not stated) | > 100 µM | > 100 µM | > 100 µM | 53 µM | > 100 µM | > 100 µM | > 100 µM | > 100 µM | –
2 | COC1=C2C[C@@H](C)C[C@@H](OC)[C@@H](O)[C@H](C)/C=C(\C)[C@@H](OC(N)=O)[C@H](OC)/C=C\C=C(/C)C(=O)NC(=CC1=O)C2=O | 9.63 µM and 3.15 µM | 14.1 µM | 0.99 µM and 0.886 µM | 1.13 µM and 0.853 µM | 11.7 µM and 7.42 µM | 4.92 µM and 1.28 µM | 3.35 µM | – | GI50 (DLD-1 colon): 131 nM; TGI (P388 leukemia): 480 nM; GI50 (KM20L2 colon): < 0.0347 µM; GI50 (XF 498 CNS): 35.6 nM; GI50 (SNB-78 CNS): 859 nM; GI50 (MDA-N): 5.77 nM; TGI (MDA-N): 8.51 µM; GI50 (HOP-18 NSCLC): 28.8 nM; TGI (SN12K1 renal): 2510 nM
3 | COc1ccc(C(=O)CC(=O)C(=O)Nc2ccc(C)c(C)c2)cc1 | > 100 µM | > 100 µM | > 100 µM | – | > 100 µM | > 100 µM | > 100 µM | > 100 µM | –
4 | CCCC(=O)Nc1ccc2c(c1)CN1C(=O)c3ccccc3C1=N2 | – | – | – | – | – | – | – | – | TGI (MDA-N): > 100 µM
5 | COc1ccccc1C(N)c1ccccc1 (configuration not stated) | > 100 µM | > 100 µM | > 100 µM | – | > 100 µM | > 100 µM | – | > 100 µM | –
6 | CN(C)C1=NC2=S(SC(Nc3ccccc3)=N2)S1 (configuration not stated) | > 100 µM | 62.9 µM | > 100 µM | 50.5 µM | > 100 µM | 91.4 µM | > 100 µM | > 100 µM | –
7 | O=C(c1nc2ccc(Cl)cc2[nH]c1=O)C(O)c1ccc2c(c1)OCO2 (configuration not stated) | > 100 µM | > 100 µM | > 100 µM | > 100 µM | – | > 100 µM | > 100 µM | > 100 µM | –
8 | COC(=O)C1=C(c2ccc3c(c2)OCO3)OC(c2ccc3c(c2)OCO3)C1 (configuration not stated) | > 100 µM | > 100 µM | > 100 µM | > 100 µM | > 100 µM | > 100 µM | > 100 µM | > 100 µM | –
9 | N#CCCSC(=S)C1CCCC1=N (configuration not stated) | – | – | – | – | – | – | – | – | TGI (MDA-N): > 100 µM
10 | CCC[CH2][Sn]1([CH2]CCC)[O]CC(CN2CCOCC2)[O]1 (configuration not stated) | 16.8 µM | 2.47 µM | 19.1 µM | 3.11 µM | 6.36 µM | – | 2.71 µM | 17.3 µM | GI50 (DLD-1 colon): 4460 nM; GI50 (LXFL 529 NSCLC): 1110 nM; GI50 (KM20L2 colon): 5.35 µM; GI50 (XF 498 CNS): 1620 nM; GI50 (SNB-78 CNS): 2120 nM; GI50 (RXF-631 renal): 1410 nM; GI50 (M19-MEL melanoma): 3.99 µM
11 | CCCCCCCCCCCCCCCCCC(=O)OCC(COC1OC(CS(=O)(=O)O)C(O)C(O)C1O)OC(=O)CCCCCCCCCCCCCCCCC (configuration not stated) | – | – | – | – | – | – | – | – | TGI (MDA-N): > 100 µM
12 | CCC1CC(C)=CCN1S(=O)(=O)c1ccc(C)cc1 (configuration not stated) | – | > 100 µM | 36 µM | – | – | – | – | – | –
13 | COc1ccc(NC(=O)CC(=O)N2N=C(N(CCC#N)c3cccc(C)c3)CC2c2ccccc2)cc1 (configuration not stated) | > 100 µM | > 100 µM | > 100 µM | – | > 100 µM | > 100 µM | – | > 100 µM | –
14 | CCC(c1ccc2cc(O)ccc2c1)C(C)(C)C(=O)O (configuration not stated) | – | – | – | – | – | – | – | – | TGI (MDA-N): > 100 µM
15 | CNC(=O)NC(CCCCNC(=O)OCc1ccccc1)C(=O)OCc1ccccc1 (configuration not stated) | > 100 µM | > 100 µM | > 100 µM | 31.8 µM | > 91.7 µM | – | – | 40.7 µM | TGI (MDA-N): 44 µM
16 | CC(C)[C@@H](C(=O)N1CCC[C@H]1C(=O)OCc1ccccc1)N(C)C(=O)[C@H](C(C)C)N(C)C(=O)[C@H](Cc1ccccc1)N(C)C(=O)[C@H](NC(=O)OC(C)(C)C)C(C)C (Boc-[dV][NMeF][NMeV][NMeV]P-OBn) | > 100 µM | > 100 µM | > 100 µM | > 100 µM | > 100 µM | > 100 µM | – | > 100 µM | –
17 | COc1ccc(C(=O)C(C(=O)C(=O)NC2C3CC4CC(C3)CC2C4)c2ccc(OC)cc2)cc1 (configuration not stated) | > 100 µM | > 100 µM | > 100 µM | – | > 100 µM | > 100 µM | – | > 100 µM | –
18 | COc1cc(Nc2nc3cc(C(F)(F)F)ccc3nc2-c2ccccc2)cc(OC)c1OC | > 100 µM | > 100 µM | – | 55.2 µM | > 100 µM | – | > 100 µM | – | –
19 | CC1=NC(C(C)C)C(=O)O1 (configuration not stated) | > 100 µM | > 100 µM | > 100 µM | > 100 µM | > 100 µM | > 100 µM | > 100 µM | > 100 µM | –
20 | CCOC(=O)NC(=O)c1cn(CCCOC(=O)NCCCCCCNC(=O)OCCCn2cc(C(=O)NC(=O)OCC)c(=O)[nH]c2=O)c(=O)[nH]c1=O | > 100 µM | > 100 µM | > 100 µM | – | > 100 µM | > 100 µM | – | > 100 µM | –
21 | O=NN/C(=C1\Nc2ccc([N+](=O)[O-])cc2NC1=O)C(O)c1ccc([N+](=O)[O-])cc1 (configuration not stated) | > 100 µM | > 100 µM | > 100 µM | > 100 µM | > 100 µM | – | > 100 µM | > 100 µM | –
